# Experimental data as given in patent publication US6737383B1, “Herbicidal oxadiazolidines” (priority 1999, dated 2004).
# Key:
# [1] = tested on: corn; assay: Test B pre/postemergence corn; assay type: in vivo, Zea mays
# Method in brief: (§1)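 Herbicidal effect was estimated by eye on a ten-point control scale after plants spent twelve to sixteen days in a greenhouse following soil or foliar treatment. Foliar sprays targeted plants at one to four leaves; all doses were formulated in a non-phytotoxic solvent with surfactant.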
# [2] = tested on: giant foxtail; assay: Test B pre/postemergence giant foxtail; assay type: in vivo, Setaria faberii
# Method in brief: as §1
# [3] = tested on: crabgrass; assay: Test B pre/postemergence crabgrass; assay type: in vivo, Digitaria sanguinalis
# Method in brief: as §1
# [4] = tested on: blackgrass; assay: Test B pre/postemergence blackgrass; assay type: in vivo, Alopecurus myosuroides
# Method in brief: as §1
# [5] = tested on: smallflower flatsedge; assay: Test B flood test smallflower flatsedge; assay type: in vivo, Cyperus difformis
# Method in brief: (§2)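 Flood test on plants grown to the 2-leaf stage; treated plants kept in greenhouse twelve to sixteen days, then visually rated against controls on a 0 (no effect) to 10 (complete control) scale.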
# [6] = tested on: surinam grass; assay: Test B pre/postemergence surinam grass; assay type: in vivo, Brachiaria decumbens
# Method in brief: as §1
# [7] = tested on: duck salad; assay: Test B flood test duck salad; assay type: in vivo, Heteranthera limosa
# Method in brief: as §2
# [8] = tested on: morningglory; assay: Test B pre/postemergence morningglory; assay type: in vivo, Ipomoea hederacea
# Method in brief: as §1
# [9] = tested on: cocklebur; assay: Test B pre/postemergence cocklebur; assay type: in vivo, Xanthium strumarium
# Method in brief: as §1
# [10] = tested on: rice; assay: Test B flood test rice; assay type: in vivo, Oryza sativa
# Method in brief: as §2
# [11] = tested on: pigweed; assay: Test B pre/postemergence pigweed; assay type: in vivo, Amaranthus retroflexus
# Method in brief: as §1
# [12] = tested on: wheat; assay: Test B pre/postemergence wheat; assay type: in vivo, Triticum aestivum
# Method in brief: as §1
# [13] = tested on: purple nutsedge; assay: Test B pre/postemergence purple nutsedge; assay type: in vivo, Cyperus rotundus
# Method in brief: as §1
# [14] = tested on: rape; assay: Test B pre/postemergence rape; assay type: in vivo, Brassica napus
# Method in brief: as §1
# [15] = tested on: sugar beet; assay: Test B pre/postemergence sugar beet; assay type: in vivo, Beta vulgaris
# Method in brief: as §1
# [16] = tested on: velvetleaf; assay: Test B pre/postemergence velvetleaf; assay type: in vivo, Abutilon theophrasti
# Method in brief: as §1
# [17] = Postemergence, Rate 250 g/ha, scale 0 to 10
# [18] = Postemergence, Rate 500 g/ha, scale of 0 to 10 where 0 is no effect and 10 is complete control
# [19] = Postemergence, Rate 1000 g/ha, scale 0 to 10 (0 no effect, 10 complete control)
# [20] = Preemergence, Rate 125 g/ha, scale of 0 to 10 where 0 is no effect and 10 is complete control
# [21] = Preemergence, Rate 250 g/ha, scale 0 to 10, 0 is no effect, 10 is complete control
# [22] = Preemergence, Rate 500 g/ha, scale 0 to 10, 0 is no effect, 10 is complete control
# [23] = Rate 125 g/ha, Postemergence, scale 0 to 10, 0 is no effect, 10 is complete control
# [24] = Rate 1000 g/ha, Preemergence, scale 0 to 10 (0 no effect, 10 complete control)
# [25] = Pre-emergence, Rate 1000 g/ha, scale 0 to 10 (0 no effect, 10 complete control)
# [26] = Rate 125 g/ha, under heading Pre-emergence, flood test species, visual evaluation after twelve to sixteen days
# [27] = Rate 250 g/ha, Pre-emergence (flood test species), scale 0 to 10, 0 is no effect, 10 is complete control
# [28] = Rate 500 g/ha, Pre-emergence, flood test species, scale 0 to 10 (0 no effect, 10 complete control)
smiles,measurement,setting,value
CCOP(=O)(Cn1c(=O)on(C(=O)N(c2ccccc2)C(C)C)c1=O)OCC [Compound 447],Corn plant response rating,[1]; [17],0
same,Corn plant response rating,[1]; [18],0
same,Corn plant response rating,[1]; [19],0
same,"Plant response rating, Corn",[1]; [20],0
same,Corn plant response rating,[1]; [21],0
same,Corn plant response rating,[1]; [22],0
same,Corn plant response rating,[1]; [23],0
same,"Plant response rating, Corn",[1]; [24],0
same,Giant foxtail plant response rating,[2]; [17],0
same,Giant foxtail plant response rating,[2]; [18],0
same,Giant foxtail plant response rating,[2]; [19],0
same,"Plant response rating, Giant foxtail",[2]; [20],3
same,Giant foxtail plant response rating,[2]; [21],7
same,Giant foxtail plant response rating,[2]; [22],8
same,Giant foxtail plant response rating,[2]; [23],0
same,"Plant response rating, Giant foxtail",[2]; [24],10
same,Crabgrass plant response rating,[3]; [17],0
same,Crabgrass plant response rating,[3]; [18],0
same,Crabgrass plant response rating,[3]; [19],0
same,"Plant response rating, Crabgrass",[3]; [20],3
same,Crabgrass plant response rating,[3]; [21],8
same,Crabgrass plant response rating,[3]; [22],9
same,Crabgrass plant response rating,[3]; [23],0
same,"Plant response rating, Crabgrass",[3]; [24],9
same,Blackgrass plant response rating,[4]; [17],0
same,Blackgrass plant response rating,[4]; [18],2
same,Blackgrass plant response rating,[4]; [19],7
same,"Plant response rating, Blackgrass",[4]; [20],0
same,Blackgrass plant response rating,[4]; [21],0
same,Blackgrass plant response rating,[4]; [22],0
same,Blackgrass plant response rating,[4]; [23],0
same,"Plant response rating, Blackgrass",[4]; [24],3
same,S. Flatsedge plant response rating,[5]; [25],0
same,"S. Flatsedge plant response rating (0 to 10 scale, 0 is no effect, 10 is complete control)",[5]; [26],0
same,S. Flatsedge plant response rating,[5]; [27],0
same,S. Flatsedge plant response rating,[5]; [28],0
same,B. signalgrass plant response rating,"[6]; Postemergence, Rate 250 g/ha, scale 0 to 10, 0 no effect, 10 complete control",0
same,B. signalgrass plant response rating,[6]; [18],0
same,B. signalgrass plant response rating,[6]; [19],2
same,"Plant response rating, B. signalgrass",[6]; [20],0
same,B. signalgrass plant response rating,[6]; [21],0
same,B. signalgrass plant response rating,[6]; [22],0
same,B. signalgrass plant response rating,[6]; [23],0
same,"Plant response rating, B. signalgrass",[6]; [24],6
same,Ducksalad plant response rating,[7]; [25],0
same,"Ducksalad plant response rating (0 to 10 scale, 0 is no effect, 10 is complete control)",[7]; [26],0
same,Ducksalad plant response rating,[7]; [27],0
same,Ducksalad plant response rating,[7]; [28],0
same,Morningglory plant response rating,[8]; [17],4
same,Morningglory plant response rating,[8]; [18],7
same,Morningglory plant response rating,[8]; [19],10
same,"Plant response rating, Morningglory",[8]; [20],0
same,Morningglory plant response rating,[8]; [21],0
same,Morningglory plant response rating,[8]; [22],0
same,Morningglory plant response rating,[8]; [23],2
same,"Plant response rating, Morningglory",[8]; [24],2
same,Cocklebur plant response rating,[9]; [17],0
same,Cocklebur plant response rating,[9]; [18],0
same,Cocklebur plant response rating,[9]; [19],0
same,"Plant response rating, Cocklebur",[9]; [20],0
same,Cocklebur plant response rating,[9]; [21],0
same,Cocklebur plant response rating,[9]; [22],0
same,Cocklebur plant response rating,[9]; [23],0
same,"Plant response rating, Cocklebur",[9]; [24],0
same,Rice plant response rating,[10]; [25],0
same,"Rice plant response rating (0 to 10 scale, 0 is no effect, 10 is complete control)",[10]; [26],0
same,Rice plant response rating,[10]; [27],0
same,Rice plant response rating,[10]; [28],0
same,Redroot pigweed plant response rating,[11]; [17],0
same,Redroot pigweed plant response rating,[11]; [18],0
same,Redroot pigweed plant response rating,[11]; [19],0
same,"Plant response rating, Redroot pigweed",[11]; [20],0
same,Redroot pigweed plant response rating,[11]; [21],0
same,Redroot pigweed plant response rating,[11]; [22],0
same,Redroot pigweed plant response rating,[11]; [23],0
same,"Plant response rating, Redroot pigweed",[11]; [24],0
same,Wheat plant response rating,[12]; [17],0
same,Wheat plant response rating,[12]; [18],0
same,Wheat plant response rating,[12]; [19],0
same,"Plant response rating, Wheat",[12]; [20],0
same,Wheat plant response rating,[12]; [21],0
same,Wheat plant response rating,[12]; [22],0
same,Wheat plant response rating,[12]; [23],0
same,"Plant response rating, Wheat",[12]; [24],0
same,Nutsedge plant response rating,[13]; [17],0
same,Nutsedge plant response rating,[13]; [18],0
same,Nutsedge plant response rating,[13]; [19],0
same,"Plant response rating, Nutsedge",[13]; [20],0
same,Nutsedge plant response rating,[13]; [21],0
same,Nutsedge plant response rating,[13]; [22],0
same,Nutsedge plant response rating,[13]; [23],0
same,"Plant response rating, Nutsedge",[13]; [24],0
same,Rape plant response rating,[14]; [17],0
same,Rape plant response rating,[14]; [18],0
same,Rape plant response rating,[14]; [19],0
same,"Plant response rating, Rape",[14]; [20],0
same,Rape plant response rating,[14]; [21],0
same,Rape plant response rating,[14]; [22],0
same,Rape plant response rating,[14]; [23],0
same,"Plant response rating, Rape",[14]; [24],0
same,Sugarbeets plant response rating,[15]; [17],0
same,Sugarbeets plant response rating,[15]; [18],0
same,Sugarbeets plant response rating,[15]; [19],0
same,"Plant response rating, Sugarbeets",[15]; [20],0
same,Sugarbeets plant response rating,[15]; [21],0
same,Sugarbeets plant response rating,[15]; [22],0
same,Sugarbeets plant response rating,[15]; [23],0
same,"Plant response rating, Sugarbeets",[15]; [24],0
same,Velvetleaf plant response rating,[16]; [17],0
same,Velvetleaf plant response rating,[16]; [18],0
same,Velvetleaf plant response rating,[16]; [19],0
same,"Plant response rating, Velvetleaf",[16]; [20],0
same,Velvetleaf plant response rating,[16]; [21],0
same,Velvetleaf plant response rating,[16]; [22],0
same,Velvetleaf plant response rating,[16]; [23],0
same,"Plant response rating, Velvetleaf",[16]; [24],0
